PMC8429728, “TNK1 is a ubiquitin-binding and 14-3-3-regulated kinase that can be targeted to block tumor growth” (Nature Communications, 2021)
Read-outs that look alike come from different tables or passages of the source.

What was measured:
Test in all cases: biochemical
Design in all cases: Reaction Biology 371-kinase panel at Km ATP, per cent enzyme activity relative to DMSO, single dose in duplicate
CDK6/cyclin D1 = CDK6/cyclin D1 (Homo sapiens, UniProt Q00534); settings: duplicate measurements, Km ATP
Method in brief: (§1)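 In vitro selectivity panel: 371 kinases, inhibitor at 300 nM; % activity vs DMSO; IC50 by variable-slope sigmoidal fit, bottom = 0.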

PHKg1 = PHKg1 (Homo sapiens, UniProt Q16816); settings: duplicate measurements, Km ATP
Method in brief: as §1

TESK1 = TESK1 (Homo sapiens, UniProt Q15569); settings: duplicate measurements, Km ATP; read-out: % Enzyme Activity (relative to DMSO controls) / TP-0005801 (0.3µM) / Data 1
Method in brief: as §1

IRAK1 = IRAK1 (Homo sapiens, UniProt P51617); settings: duplicate measurements, Km ATP
Method in brief: as §1

MEK5 = target: T1, MEK5 (Homo sapiens, UniProt Q13163); settings: duplicate measurements, Km ATP
T1 construct: gene MAP2K5
Method in brief: as §1

Aurora B = target: T2, Aurora B (Homo sapiens, UniProt Q96GD4); settings: duplicate measurements, Km ATP
T2 construct: gene AURKB
Method in brief: as §1

IKKe/IKBKE = IKKe/IKBKE (Homo sapiens, UniProt Q14164); settings: duplicate measurements, Km ATP
Method in brief: as §1

TRKB = target: T3, TRKB (Homo sapiens, UniProt Q16620); settings: duplicate measurements, Km ATP
T3 construct: gene NTRK2
Method in brief: as §1

MEKK1 = target: T4, MEKK1 (Homo sapiens, UniProt Q13233); settings: duplicate measurements, Km ATP
T4 construct: gene MAP3K1
Method in brief: as §1

NEK9 = NEK9 (Homo sapiens, UniProt Q8TD19); settings: duplicate measurements, Km ATP
Method in brief: as §1

BMPR2 = BMPR2 (Homo sapiens, UniProt Q13873); settings: duplicate measurements, Km ATP
Method in brief: as §1

IRR/INSRR = IRR/INSRR (Homo sapiens, UniProt P14616); settings: duplicate measurements, Km ATP
Method in brief: as §1

EPHA1 = EPHA1 (Homo sapiens, UniProt P21709); settings: duplicate measurements, Km ATP
Method in brief: as §1

ZAP70 = ZAP70 (Homo sapiens, UniProt P43403); settings: duplicate measurements, Km ATP
Method in brief: as §1

PKCmu/PRKD1 = PKCmu/PRKD1 (Homo sapiens, UniProt Q15139); settings: duplicate measurements, Km ATP
Method in brief: as §1

MKK6 = target: T5, MKK6 (Homo sapiens, UniProt P52564); settings: duplicate measurements, Km ATP
T5 construct: gene MAP2K6
Method in brief: as §1

STK21/CIT = STK21/CIT (Homo sapiens, UniProt O14578); settings: duplicate measurements, Km ATP
Method in brief: as §1

[1] = read-out: % Enzyme Activity (relative to DMSO controls) / TP-0005801 (0.3µM) / Data 1
[2] = read-out: % Enzyme Activity (relative to DMSO controls) / TP-0005801 (0.3µM) / Data 2

T1 sequence (Q13163 whole entry): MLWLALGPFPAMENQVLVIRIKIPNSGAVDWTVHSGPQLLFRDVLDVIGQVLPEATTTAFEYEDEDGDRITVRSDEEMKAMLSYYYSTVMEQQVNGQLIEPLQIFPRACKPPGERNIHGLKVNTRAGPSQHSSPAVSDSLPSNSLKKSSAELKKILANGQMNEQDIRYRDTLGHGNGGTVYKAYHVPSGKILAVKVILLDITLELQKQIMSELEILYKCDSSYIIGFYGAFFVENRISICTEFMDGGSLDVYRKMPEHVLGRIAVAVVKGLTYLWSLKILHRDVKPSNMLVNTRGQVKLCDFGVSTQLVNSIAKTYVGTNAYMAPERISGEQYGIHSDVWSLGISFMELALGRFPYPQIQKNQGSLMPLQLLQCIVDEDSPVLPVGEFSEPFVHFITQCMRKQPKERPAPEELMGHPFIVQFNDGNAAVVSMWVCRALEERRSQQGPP
Sequence of CDK6/cyclin D1 (Q00534 whole entry): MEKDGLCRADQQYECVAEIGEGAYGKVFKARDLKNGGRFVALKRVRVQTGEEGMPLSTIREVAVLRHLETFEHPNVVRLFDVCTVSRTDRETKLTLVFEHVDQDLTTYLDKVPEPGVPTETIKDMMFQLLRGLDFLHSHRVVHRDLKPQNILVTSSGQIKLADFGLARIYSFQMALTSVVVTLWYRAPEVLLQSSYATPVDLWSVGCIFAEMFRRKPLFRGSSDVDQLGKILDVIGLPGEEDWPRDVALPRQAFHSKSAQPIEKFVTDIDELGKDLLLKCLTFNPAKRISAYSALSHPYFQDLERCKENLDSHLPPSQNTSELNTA
Sequence of CDK6/cyclin D1 (P24385 whole entry partner): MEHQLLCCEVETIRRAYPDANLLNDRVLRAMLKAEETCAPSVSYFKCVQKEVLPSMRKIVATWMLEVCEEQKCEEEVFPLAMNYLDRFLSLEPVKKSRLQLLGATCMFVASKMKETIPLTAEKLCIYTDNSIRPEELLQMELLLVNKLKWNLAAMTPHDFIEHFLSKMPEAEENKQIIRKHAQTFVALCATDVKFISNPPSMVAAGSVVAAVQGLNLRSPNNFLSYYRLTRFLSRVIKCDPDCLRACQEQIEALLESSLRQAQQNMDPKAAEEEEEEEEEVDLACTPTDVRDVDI
T5 sequence (P52564 whole entry): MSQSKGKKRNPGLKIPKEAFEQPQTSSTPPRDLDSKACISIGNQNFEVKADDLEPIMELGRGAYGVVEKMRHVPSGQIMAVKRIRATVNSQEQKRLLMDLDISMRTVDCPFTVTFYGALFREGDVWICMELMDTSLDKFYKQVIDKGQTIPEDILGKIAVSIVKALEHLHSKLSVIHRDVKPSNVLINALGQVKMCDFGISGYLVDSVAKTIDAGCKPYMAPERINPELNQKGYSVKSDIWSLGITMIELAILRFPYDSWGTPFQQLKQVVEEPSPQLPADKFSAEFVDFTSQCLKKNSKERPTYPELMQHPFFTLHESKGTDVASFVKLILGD
Sequence of EPHA1 (P21709 whole entry): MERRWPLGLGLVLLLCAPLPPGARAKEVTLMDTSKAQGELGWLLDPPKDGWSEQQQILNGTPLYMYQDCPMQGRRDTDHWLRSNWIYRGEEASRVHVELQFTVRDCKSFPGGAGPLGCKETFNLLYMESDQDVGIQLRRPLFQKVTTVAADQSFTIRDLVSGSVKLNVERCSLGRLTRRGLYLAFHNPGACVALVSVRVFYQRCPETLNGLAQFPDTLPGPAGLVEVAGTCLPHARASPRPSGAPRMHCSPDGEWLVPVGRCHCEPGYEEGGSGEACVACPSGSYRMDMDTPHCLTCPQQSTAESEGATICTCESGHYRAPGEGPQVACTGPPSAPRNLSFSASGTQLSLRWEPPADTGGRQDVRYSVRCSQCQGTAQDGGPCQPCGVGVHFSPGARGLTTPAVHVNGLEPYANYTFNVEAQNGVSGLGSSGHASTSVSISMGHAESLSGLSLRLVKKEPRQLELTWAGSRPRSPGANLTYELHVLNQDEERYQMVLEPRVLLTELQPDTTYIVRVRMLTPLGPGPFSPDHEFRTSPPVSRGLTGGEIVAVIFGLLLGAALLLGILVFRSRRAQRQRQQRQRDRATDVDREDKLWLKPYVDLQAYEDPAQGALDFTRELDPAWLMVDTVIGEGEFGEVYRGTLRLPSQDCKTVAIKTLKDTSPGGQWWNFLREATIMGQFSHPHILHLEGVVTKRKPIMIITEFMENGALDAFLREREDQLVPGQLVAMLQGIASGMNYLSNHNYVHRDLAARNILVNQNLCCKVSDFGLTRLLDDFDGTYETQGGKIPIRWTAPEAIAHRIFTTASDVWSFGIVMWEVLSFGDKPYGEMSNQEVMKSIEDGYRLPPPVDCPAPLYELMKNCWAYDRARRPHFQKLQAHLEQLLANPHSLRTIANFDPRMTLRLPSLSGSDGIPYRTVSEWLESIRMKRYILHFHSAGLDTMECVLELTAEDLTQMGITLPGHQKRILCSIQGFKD
Sequence of ZAP70 (P43403 whole entry): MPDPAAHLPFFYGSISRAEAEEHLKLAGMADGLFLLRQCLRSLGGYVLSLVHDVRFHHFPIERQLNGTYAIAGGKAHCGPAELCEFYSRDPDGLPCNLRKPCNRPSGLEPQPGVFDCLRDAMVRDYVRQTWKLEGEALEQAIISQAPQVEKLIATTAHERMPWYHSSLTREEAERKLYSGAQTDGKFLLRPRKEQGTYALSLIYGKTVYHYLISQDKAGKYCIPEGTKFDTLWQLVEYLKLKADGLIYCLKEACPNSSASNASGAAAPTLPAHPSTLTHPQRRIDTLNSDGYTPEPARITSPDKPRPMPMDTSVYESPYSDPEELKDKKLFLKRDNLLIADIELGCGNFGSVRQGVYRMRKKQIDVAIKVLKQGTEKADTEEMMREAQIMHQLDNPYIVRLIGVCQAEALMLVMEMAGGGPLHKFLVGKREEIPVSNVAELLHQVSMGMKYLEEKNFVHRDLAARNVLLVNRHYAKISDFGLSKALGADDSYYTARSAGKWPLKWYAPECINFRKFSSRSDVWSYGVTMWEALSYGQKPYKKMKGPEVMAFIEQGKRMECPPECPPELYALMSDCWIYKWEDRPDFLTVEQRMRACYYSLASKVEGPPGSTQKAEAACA
T4 sequence (Q13233 whole entry): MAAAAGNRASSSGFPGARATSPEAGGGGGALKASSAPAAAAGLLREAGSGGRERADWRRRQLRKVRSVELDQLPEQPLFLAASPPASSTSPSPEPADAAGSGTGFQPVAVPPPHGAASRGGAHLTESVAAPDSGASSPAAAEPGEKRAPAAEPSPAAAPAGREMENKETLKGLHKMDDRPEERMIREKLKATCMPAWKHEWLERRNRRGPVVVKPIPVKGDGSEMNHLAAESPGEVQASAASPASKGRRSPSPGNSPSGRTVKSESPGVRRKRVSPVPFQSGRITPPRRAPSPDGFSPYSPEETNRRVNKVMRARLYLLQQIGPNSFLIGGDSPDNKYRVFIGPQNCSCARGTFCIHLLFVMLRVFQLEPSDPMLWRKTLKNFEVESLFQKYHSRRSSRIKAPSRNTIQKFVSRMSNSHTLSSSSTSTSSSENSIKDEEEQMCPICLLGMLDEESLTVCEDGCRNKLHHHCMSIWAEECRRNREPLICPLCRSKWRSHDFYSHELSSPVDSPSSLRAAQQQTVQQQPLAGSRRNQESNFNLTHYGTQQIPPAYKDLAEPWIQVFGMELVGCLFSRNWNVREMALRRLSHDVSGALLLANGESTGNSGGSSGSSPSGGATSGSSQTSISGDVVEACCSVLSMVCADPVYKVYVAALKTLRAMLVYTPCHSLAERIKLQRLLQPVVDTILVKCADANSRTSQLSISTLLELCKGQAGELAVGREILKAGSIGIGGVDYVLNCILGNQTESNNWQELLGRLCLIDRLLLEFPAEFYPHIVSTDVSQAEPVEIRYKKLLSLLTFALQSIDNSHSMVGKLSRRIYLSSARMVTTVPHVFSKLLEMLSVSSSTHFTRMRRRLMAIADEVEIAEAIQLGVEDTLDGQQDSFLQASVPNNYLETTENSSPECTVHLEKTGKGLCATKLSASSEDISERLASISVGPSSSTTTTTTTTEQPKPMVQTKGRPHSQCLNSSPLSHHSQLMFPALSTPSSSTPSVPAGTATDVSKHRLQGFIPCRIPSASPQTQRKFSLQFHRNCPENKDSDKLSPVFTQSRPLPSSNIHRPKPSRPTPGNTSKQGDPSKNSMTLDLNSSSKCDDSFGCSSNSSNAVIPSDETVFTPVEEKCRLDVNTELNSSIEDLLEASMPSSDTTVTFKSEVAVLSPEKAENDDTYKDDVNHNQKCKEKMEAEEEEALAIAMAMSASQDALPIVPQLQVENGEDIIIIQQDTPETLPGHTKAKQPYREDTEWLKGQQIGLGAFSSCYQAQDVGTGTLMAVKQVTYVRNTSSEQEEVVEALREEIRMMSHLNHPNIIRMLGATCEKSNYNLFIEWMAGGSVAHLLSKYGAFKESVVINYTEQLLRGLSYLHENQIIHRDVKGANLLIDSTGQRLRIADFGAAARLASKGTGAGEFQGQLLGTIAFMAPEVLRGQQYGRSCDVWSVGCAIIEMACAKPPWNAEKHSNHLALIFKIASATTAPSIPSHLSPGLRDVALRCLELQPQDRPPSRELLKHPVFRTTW
Sequence of PHKg1 (Q16816 whole entry): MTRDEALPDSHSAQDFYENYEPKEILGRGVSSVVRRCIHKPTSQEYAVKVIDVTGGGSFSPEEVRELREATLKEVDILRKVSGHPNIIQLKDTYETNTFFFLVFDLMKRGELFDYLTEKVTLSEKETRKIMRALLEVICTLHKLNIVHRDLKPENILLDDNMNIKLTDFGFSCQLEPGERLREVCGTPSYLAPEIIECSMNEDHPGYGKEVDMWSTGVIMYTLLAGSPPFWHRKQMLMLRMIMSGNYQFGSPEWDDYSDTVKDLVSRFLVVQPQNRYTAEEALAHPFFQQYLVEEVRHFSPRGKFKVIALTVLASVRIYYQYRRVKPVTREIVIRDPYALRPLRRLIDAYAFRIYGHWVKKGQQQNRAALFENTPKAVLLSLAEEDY

COc1cc(N2CCN(C)CC2)c(C)cc1Nc1ncc(Br)c(Nc2cccnc2N(C)C)n1 [TP-5801]
remaining activity at 0.3 µM (CDK6/cyclin D1; [1]): 88.2%
remaining activity at 0.3 µM (CDK6/cyclin D1; [2]): 87.5%
remaining activity at 0.3 µM (PHKg1; [1]): 30.6%
remaining activity at 0.3 µM (PHKg1; [2]): 29.7%
remaining activity at 0.3 µM (TESK1): 102%
remaining activity at 0.3 µM (IRAK1; [1]): 87.2%
remaining activity at 0.3 µM (IRAK1; [2]): 83.4%
remaining activity at 0.3 µM (MEK5; [1]): 110%
remaining activity at 0.3 µM (MEK5; [2]): 108%
remaining activity at 0.3 µM (Aurora B; [1]): 86.7%
remaining activity at 0.3 µM (Aurora B; [2]): 83.9%
remaining activity at 0.3 µM (IKKe/IKBKE; [1]): 99.7%
remaining activity at 0.3 µM (IKKe/IKBKE; [2]): 94.2%
remaining activity at 0.3 µM (TRKB; [1]): 96.1%
remaining activity at 0.3 µM (TRKB; [2]): 95.9%
remaining activity at 0.3 µM (MEKK1; [1]): 111%
remaining activity at 0.3 µM (MEKK1; [2]): 109%
remaining activity at 0.3 µM (NEK9; [1]): 69.6%
remaining activity at 0.3 µM (NEK9; [2]): 68.6%
remaining activity at 0.3 µM (BMPR2; [1]): 89.7%
remaining activity at 0.3 µM (BMPR2; [2]): 89.2%
remaining activity at 0.3 µM (IRR/INSRR; [1]): 66.7%
remaining activity at 0.3 µM (IRR/INSRR; [2]): 65.2%
remaining activity at 0.3 µM (EPHA1; [1]): 96.8%
remaining activity at 0.3 µM (EPHA1; [2]): 96.5%
remaining activity at 0.3 µM (ZAP70; [1]): 95.5%
remaining activity at 0.3 µM (ZAP70; [2]): 91.3%
remaining activity at 0.3 µM (PKCmu/PRKD1; [1]): 67.7%
remaining activity at 0.3 µM (PKCmu/PRKD1; [2]): 67.3%
remaining activity at 0.3 µM (MKK6; [1]): 116%
remaining activity at 0.3 µM (MKK6; [2]): 115%
remaining activity at 0.3 µM (STK21/CIT; [1]): 107%
remaining activity at 0.3 µM (STK21/CIT; [2]): 105%
